Source: patent US7153839B2, “Method of protecting erythricytes, in particular for improvement of blood cytopenia” (Biocell Laboratories, priority 2000, dated 2006)

Assays:
[1] = tested on: myeloperoxydase; assay: Myeloperoxydase activity in the ischemized part of myocardium; assay type: in vivo, rats; conditions: 30 minutes occlusion, 1 hour reperfusion; control 211.8+16.7
Source text: The mieloperoxydase activity (MPA) was studied in myocardium using the method of Bradley et al. (Bradley P. P., Priebet D. A., Christensen R. D. et al., Measurement of cutateous inflammation: estimation of neutrophil content with an enzyme marker, J. Invest. Dermatol., 78(3): 206–209; 1982) in the modification by Grisfwold et al. (Griswold D. E., Hillegass L. M., Hill D. E. et al., Method for quantification of myocardial infarction and inflammatory cell infiltration in rat cardial tissue, J. Pharmacol. Methods, 20(3): 225–235, 1988). For this purpose, the heart was extracted and rinsed in physiological solution, which was cooled to 0° C. After rinsing, a section of myocardium (1 g of the tissue) in the central zone of ischemia was cut out and frozen to −30° C. The final fraction was prepared as a 10% haemogenate with extractive buffer containing 0.5% hexadecyltrimethyl ammonium bromide (pH 6.0) at room temperature. […]
The upper fraction (30 microliters) was used for a reaction with 0.167 mg/ml of O-dianisodine in 50 millimole/l of potassium phosphate buffer (pH 6.0). […] The reaction had been continuously tested for 5 minutes at 460 hm wave length, and with readings taken every minute. A chart indicating the readings was prepared. A unit of MPA was defined as the quantity of ferment, which destroys 1 micromole/min H2O2 at 25° C. The data was calculated as MPA per 1 gram of tissue. […]

[2] = tested on: free arachidonic acid; assay: Free arachidonic acid in mouse blood plasma after carrageenan injection; assay type: in vivo; conditions: 320 min after carrageenan; LPS control 3.37
Method: (§1) […] We tested the influence of yeast RNA on the activity of NO-synthetase ferment (NOS) in blood plasma and in erythrocytes, as well as on the content in blood plasma of free arachidonic acid and products of its oxide metabolism, carried out in lypoxygenase (leukotriene C4 (LTC4)) and cyclooxygenase (thromboxane B2 (T×B2)) ways.
(§2) The content of free arachidonic acid (AA) was measured by two-dimensional thin-layer chromatography (TLC) as discussed in Tsunamoto et al. (Tsunamoto K., Todo S., Imashuku S. Separation of prostaglandines and thromboxane by two-dimensional thin-layer chromatography. J. Chromatog. 3; 417(2); 414–419; 1987. The content of stable metabolite of thromboxane A2 (TXB2) was studied in probes by radio-immune method with TXB2 [^3H] RIA Kit, by Amersham International PLC (England) (McCann D. S., Tokarsky J., Sorkin R. P., Radioimmunoassay for plasma thromboxane B2. Clin. Chem., 27(8): 1417–1420, 1981). The content of LTC4 was tested in probes by radio-immune method with LTC4 [^3H] RIA Kit by Du Pont Ltd. Hertfordshire, (UK) (Levine L., Morgan R. A., Levis R. A. et al., Radioimmunoassay of the leukotrienes of slow reactivity substance of anaphylaxis. Proc. Natl. Acad. Sci. USA. 78(12): 7692–7696; 1981).

[3] = tested on: carrageenan-induced swelling of leg; assay: Local inflammation (leg swelling) provoked by carrageenan in mice; assay type: in vivo, BALB-line mice; conditions: for % inhibition of swelling: 0.4 mg per mouse (20 mg/kg), 20 mg/kg
Method: To study the anti-inflammatory action of drugs, we used the model of local inflammation in mice. Inflammation in BALB-line mice was modeled with the help of carrageenan, a classical phlogogenic agent. 30 minutes before the injection, the mice were injected intra-abdominally with drug, which was dissolved in […] of physiological solution (PS). Carrageenan […] produced by Serva Fein Biochemica (Germany) was prepared in the form of a 1% solution in PS. The obtained viscous solution, 40 mcl, was injected subplantally in the left back leg. The right, intact leg was taken as control. 4 hours later after the carrageenan injection, the mice were killed via decapitation, and their back legs were detached from the bodies on the same level, a little higher the ankles. After that, the legs were carefully weighted, with 1 mg accuracy. Obtained results were statistically processed by the MultiFac 2.2. SPSS 8/0 software. The anti-inflammatory effect of the drug was calculated by the formula:
[formula] • Vk—average increase of volume (mass) of the swollen leg in control mice • Vo—average increase of volume (mass) of the swollen leg in treated mice
In the first test, mice were divided into 8 groups. The first group consisted of control animals, which were injected intra-abdominally with 2 ml of PS. Also, […] of PS was injected in the left leg. This group was studied to determine the influence of injection on the course of inflammation in a leg. The second group, control with LPS, took […] of PS intra-abdominally and received LPS injections in the left leg. The third group took […] of aspirin dissolved in PS in the concentration 0.4 mg per mouse. In the fourth, fifth and sixth groups, yeast RNA-D was dissolved in PS in respective concentrations 5, 10, and 15 mg in 2 ml of PS per animal. LPS was injected in the left leg to provoke swelling. The seventh and eighth groups were treated respectively by DNA-TC and DNA-EC, which were injected in the concentration 15 mg per mouse, as explained above for RNA-treated groups.
The right legs were left intact. 4 hours later, the animals were decapitated. […]

[4] = tested on: NO-synthetase (NOS); assay: NOS activity in mouse blood plasma after carrageenan injection; assay type: in vivo; conditions: 320 min after carrageenan; LPS control 110.48
Method: as §1
(§3) The activity in blood plasma and erythrocytes of the enzyme NO-synthetase was measured by colometric method applied to the outcome of reaction, nitrite anion. (Yan L., Vandivier R. W., Suffredini A. F., Danner R. L., Human polymorphonuclear leukocytes lack detectable nitric oxide synthetase activity. J. Immunol., 15; 153(4): 1825–1834; 1994). […] The reaction was initiated by adding 0.1 ml of a probe containing 500 microgram of general protein determined by Bredford method. […]
(§4) Nitrite anion was determined using the reagent of Gris in colometric reaction as decribed in Green et al. (Green L. C., Waagner D. A., Glogowski J. et al., Analysis of nitrate, nitrite and [15N] nitrate in biological fluids, Anal. Biochem., 126(1): 131–138;1982). […] In 5 minutes after mixing, the extinction at 543 hm was measured. The quantity of NO2 was measured by standard curve built for NaNO2.

[5] = tested on: NO-synthetase (NOS); assay: NOS activity in mouse erythrocytes after carrageenan injection; assay type: in vivo; conditions: 320 min after carrageenan; LPS control 2.232
Method: as §1, §3, §4

[6] = tested on: human thrombocytes; assay: Aggregation of thrombocytes induced by arachidonic acid in vitro; assay type: cell-based; conditions: Table 2; 0.06 mg per tube
Method: We studied the anti-inflammatory action of nucleic acids on the model of thrombocyte aggregation in vitro by the method of Born (Born L.V.R. The aggregation of blood platelets by diphosphate and its reversal, Nature, […], P. 327, 1962). Venous human blood was taken in silicon tubes of Becton Dickson, which contained a 3.8% solution of sodium citrate. In order to receive thrombocytic-rich plasma, citrate blood was centrifuged at 1500 rev/mm for 7 minutes. Plasma free of thrombocytes was obtained by centrifuging 2.0 ml of plasma taken from medium layers for 15 minutes at 3000 rev/mm. We counted the number of thrombocytes in the thrombocytic-containing plasma, which was later diluted by the thrombocyte-free plasma to the final concentration […].
An Aggregometer produced by “Tromlite” (Poland) was used for thrombocyte aggregation. In order to induce aggregation, arachidonic acid was diluted in Michaelis buffer in the proportion 1 mg/ml. Two tubes were inserted in the aggregometer, one of which contained 0.2 ml of thrombocyte-containing plasma, while the other one had 0.2 ml of thrombocyte-free plasma and 0.1 ml of isotonic solution of sodium chloride. […] Then, the light-transparency of thrombocyte-containing plasma was measured during 5 minutes, which indicated the stage of thrombocyte aggregation. […]

[7] = tested on: leukotriene C4; assay: Leukotriene C4 in mouse blood plasma after carrageenan injection; assay type: in vivo; conditions: 320 min after carrageenan; LPS control 226.78
[8] = tested on: thromboxane B2; assay: Thromboxane B2 in mouse blood plasma after carrageenan injection; assay type: in vivo; conditions: 320 min after carrageenan; LPS control 358.240
Method: as §1, §2

**Q.** For CC(=O)Oc1ccccc1C(=O)O [Aspirin, aspirin], which “activity of myeloperoxydase in ischemized myocardium” value [1] is on record?
**A.** The value was 176.1+5.9 units per 1 g of tissue.

**Q.** What about the “content of free arachidonic acid in blood plasma” value [2] of the same molecule?
**A.** Its value is 2.64 nanomol per 1 mg of protein.

**Q.** And the “% inhibition of swelling” value [3]?
**A.** Its value is 18.03%.

**Q.** What about the “% inhibition of swelling” value ([3]; listed as aspirin) of the same molecule?
**A.** Its value is 18.03%.

**Q.** What about the “increase of mass of the swollen leg” value ([3]; 0.4 mg per mouse intra-abdominally, 4 hours after carrageenan, Control + LPS 43.31) of the same molecule?
**A.** Its value is 35.5 +.

**Q.** What about the “activity of NOS in blood plasma, M” value [4] of the same molecule?
**A.** The value was 42.24 picomol per 1 min per 1 mg of protein.

**Q.** And the “activity of NOS in erythrocytes, M” value [5]?
**A.** Its value is 3.613 picomol per 1 min per 1 mg of protein.

**Q.** What about the “inhibition of thrombocyte aggregation (index of aggregation), M” value [6] of the same molecule?
**A.** The value was 38.66%.

**Q.** What about the “content of leukotriene C4 in blood plasma” value [7] of the same molecule?
**A.** The value was 93.99 picomol per 1 mg of protein.

**Q.** And the “content of thromboxane B2 in blood plasma” value [8]?
**A.** The value was 153.903 picomol per 1 mg of protein.
